The values that follow come from ChEMBL document CHEMBL5137025, “Tuberculosis Drug Discovery: Challenges and New Horizons” (J Med Chem, 2022).

A short description of series [1]: Solubility of the compound in PBS at pH 7.4 incubated for 24 hrs by LC-MS analysis. The class given is physicochemical.
Series [2] relates to Mycobacterium tuberculosis. It counts as functional, H37Rv. The note with it: dose 10 mg/kg; route po; time 2 weeks.
A short description of series [3]: Metabolic stability in CD-1 mouse liver microsomes assessed as half life measured for 5 to 40 mins by LC-MS/MS analysis. It counts as ADME, Microsome. The conditions noted are these: time 5-40 min. Background: Liver microsomes are a subcellular fraction often used to study metabolism.
Series [4] has as its system Mycobacterium tuberculosis. Description: Antibacterial activity against Mycobacterium tuberculosis infected in macrophage assessed as inhibition of bacterial growth. The class given is functional, organism-based.
Series [5] concerns Mycobacterium tuberculosis. It counts as functional, THP-1. The conditions noted are these: H37Rv.
For series [6], the system named is Mycobacterium tuberculosis. Nature of the series: Antibacterial activity against Mycobacterium tuberculosis in acute Mtb infection BALB/c mouse model assessed as reduction in log10 CFU treated for 6 days. The class given is functional. The conditions noted are these: time 6 day.
In series [7] the test system is Mycobacterium tuberculosis. It counts as functional, THP-1. The conditions noted are these: H37Rv. The source holds these as a separate data set.
The subject of series [8] is Mycobacterium tuberculosis. Nature of the series: Antibacterial activity against Mycobacterium tuberculosis in acute Mtb infection 129sv dehydropeptidase-1 KO mouse model assessed as reduction in log10 CFU administered subcutaneously twice daily for 6 days. The conditions noted are these: route sc; time 6 day. The class given is functional.
Series [9] has as its system Mycobacterium tuberculosis. Description: microbe, parasite or virus in culture. The note with it: H37Rv.
Description: Antibacterial activity against Mycobacterium tuberculosis H37Rv assessed as inhibition of bacterial growth
Series [10] in a line: Half life in mouse. It counts as ADME, organism-based. The note with it: in vivo.
In series [11] the test system is Mycobacterium tuberculosis. Nature of the series: Antibacterial activity against Mycobacterium tuberculosis in acute Mtb infection mouse model assessed as reduction in log10 CFU at 200 mg/kg for 3 weeks in presence of Rifampicin. The class given is functional.
In series [12] the test system is Mycobacterium tuberculosis. Description: Antibacterial activity against Mycobacterium tuberculosis in acute Mtb infection mouse model assessed as reduction in log10 CFU at 200 mg/kg for 3 weeks. The class given is functional.
The test system of series [13] is Mycobacterium tuberculosis. The class given is functional. The note with it: H37Rv, 336 h, time 14 day.
The test system of series [14] is Mycobacterium tuberculosis. It counts as functional. The note with it: H37Rv, 336 h, time 14 day. This is another data set of the same source.
Series [15] relates to Mycobacterium tuberculosis. It counts as functional, H37Rv. The conditions noted are these: dose 300 mg/kg; time 8 day.
A short description of series [16]: Oral bioavailability in mouse. It counts as ADME, organism-based. The conditions noted are these: in vivo.
Series [17] deals with T1, Voltage-gated inwardly rectifying potassium channel KCNH2 (Homo sapiens, UniProt Q12809). Description: Inhibition of hERG by Qpatch assay. It counts as toxicity. Background: The hERG channel carries a current that helps repolarise heart muscle cells.
T1 sequence (Q12809 whole entry): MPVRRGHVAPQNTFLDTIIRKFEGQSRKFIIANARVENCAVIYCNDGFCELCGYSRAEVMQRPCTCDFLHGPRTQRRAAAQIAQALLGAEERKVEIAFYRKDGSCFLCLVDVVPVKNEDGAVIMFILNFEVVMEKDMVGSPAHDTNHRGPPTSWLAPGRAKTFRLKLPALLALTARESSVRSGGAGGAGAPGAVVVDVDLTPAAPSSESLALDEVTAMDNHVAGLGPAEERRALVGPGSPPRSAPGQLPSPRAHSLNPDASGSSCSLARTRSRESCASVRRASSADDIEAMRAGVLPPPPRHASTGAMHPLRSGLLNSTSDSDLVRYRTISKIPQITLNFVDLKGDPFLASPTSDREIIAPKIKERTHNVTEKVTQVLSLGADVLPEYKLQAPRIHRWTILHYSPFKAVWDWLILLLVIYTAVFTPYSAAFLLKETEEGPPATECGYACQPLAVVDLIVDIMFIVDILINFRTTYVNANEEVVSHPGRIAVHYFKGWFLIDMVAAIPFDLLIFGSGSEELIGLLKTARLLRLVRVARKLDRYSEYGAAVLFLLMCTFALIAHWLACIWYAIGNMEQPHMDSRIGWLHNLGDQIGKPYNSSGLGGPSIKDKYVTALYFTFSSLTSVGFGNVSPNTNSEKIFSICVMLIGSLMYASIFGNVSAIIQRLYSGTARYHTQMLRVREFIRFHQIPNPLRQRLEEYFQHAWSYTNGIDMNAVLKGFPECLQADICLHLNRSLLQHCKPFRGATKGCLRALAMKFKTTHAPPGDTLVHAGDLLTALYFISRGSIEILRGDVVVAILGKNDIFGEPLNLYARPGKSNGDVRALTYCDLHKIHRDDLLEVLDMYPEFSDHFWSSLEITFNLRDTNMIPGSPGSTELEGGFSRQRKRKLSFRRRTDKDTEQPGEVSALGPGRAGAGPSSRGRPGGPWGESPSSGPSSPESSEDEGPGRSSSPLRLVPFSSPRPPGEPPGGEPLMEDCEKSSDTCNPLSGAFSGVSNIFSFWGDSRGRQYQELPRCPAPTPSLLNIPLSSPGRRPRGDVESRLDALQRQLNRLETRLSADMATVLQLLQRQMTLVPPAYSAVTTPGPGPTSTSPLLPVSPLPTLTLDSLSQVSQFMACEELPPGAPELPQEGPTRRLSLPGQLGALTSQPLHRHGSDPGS
Series [18] deals with HepG2. Nature of the series: Cytotoxicity against human HepG2 cells. It counts as functional.
In series [19] the test system is Mycobacterium tuberculosis. It counts as functional, H37Rv. The conditions noted are these: dose 100 mg/kg.
In series [20] the test system is Mycobacterium tuberculosis. It counts as functional. The note with it: H37Rv.
A short description of series [21]: Inhibition of bacterial InhA expressed in Escherichia coli BL21 (DE3) incubated for 1 hr by […]. Also on record: species or system Bacteria.
Series [22] can be described thus: Aqueous solubility of compound in PBS at pH 7.4 incubated for 1 hr. It counts as physicochemical.
The nature of series [23]: Oral bioavailability in CD-1 mouse at 10 mg/kg measured for 24 hrs. The note with it: in vivo. It counts as ADME, organism-based.
Series [24] concerns Mycobacterium tuberculosis. Nature of the series: Antibacterial activity against Mycobacterium tuberculosis Erdman (TMCC 107) in chronic Mtb infection BALB/c mouse model assessed as reduction in log10 CFU in lungs at 100 mg/kg, po via gavage upto 8 weeks. It counts as functional.
The nature of series [25]: Half life in CD-1 mouse at 5 mg/kg, iv measured for 24 hrs. The conditions noted are these: in vivo. The class given is ADME, organism-based.
Series [26] concerns HepG2. Description: Cytotoxicity against human HepG2 cells assessed as reduction in cell viability treated for 72 hrs by Cell Titer Glo assay. The class given is functional.
Series [27] concerns Mycobacterium tuberculosis. Description: Antibacterial activity against Mycobacterium tuberculosis Erdman (TMCC 107) in Mtb infection C3HeB/FeJ mouse model assessed as reduction in log10 CFU in lungs at 100 mg/kg, po via gavage upto 4 weeks. It counts as functional.
Series [28] relates to Mycobacterium tuberculosis. Nature of the series: Antibacterial activity against Mycobacterium tuberculosis Erdman in acute Mtb infection C57BL/6-IFN-gamma-tm1Ts KO mouse model assessed as reduction in log10 CFU in lungs at 50 mg/kg, po qd for 9 consecutive days. It counts as functional.
For series [29], the system named is Mycobacterium tuberculosis. The class given is functional. The conditions noted are these: H37Rv, 120 h, time 5 day.
For series [30], the system named is Mycobacterium tuberculosis. It counts as functional. The conditions noted are these: H37Rv, time 6 day.
For series [31], the system named is Mycobacterium tuberculosis. It counts as functional, H37Rv. The conditions noted are these: dose 18 mg/kg; time 8 day.
The nature of series [32]: Cytotoxicity against African green monkey Vero cells assessed as reduction in cell viability by MTT assay. It counts as toxicity, cell-based. The note with it: chlorocebus sabaeus. On the technique in general: Tetrazolium assays rely on reduction of a dye to a coloured formazan, in cell work by metabolically active cells.
The test system of series [33] is Mycobacterium tuberculosis. The class given is functional, H37Rv. The conditions noted are these: dose 200 mg/kg; time 8 day.
In series [34] the target is T1, Voltage-gated inwardly rectifying potassium channel KCNH2.
Series [35] can be described thus: Kinetic aqueous solubility of the compound incubated for 4.5 hrs by LC-MS/MS analysis. It counts as physicochemical. The conditions noted are these: buffer, read-out: Kinetic_solubility.
Series [36] can be described thus: Stability in mouse liver microsome assessed as half life by Reverse-phase HPLC analysis. The class given is ADME. The conditions noted are these: liver microsomes.
A short description of series [37]: Kinetic solubility of the compound. It counts as physicochemical. The note with it: read-out: Kinetic_solubility.
Series [38] has as its system Mycobacterium tuberculosis. It counts as functional, H37Rv. The conditions noted are these: dose 100 mg/kg; time 8 weeks.
A short description of series [39]: Solubility of the compound. The class given is physicochemical.
Series [40] relates to Mycobacterium tuberculosis. Description: Antibacterial activity against Mycobacterium tuberculosis in acute Mtb infection C57BL/6J mouse model assessed as reduction in log10 CFU in lungs at 350 mg/kg, po for 8 days. The class given is functional. The note with it: time 8 day.
For series [41], the system named is Mycobacterium tuberculosis. Nature of the series: Antibacterial activity against Mycobacterium tuberculosis Beijing strain in acute Mtb infection BALB/c mouse model assessed as reduction in log10 CFU in lungs at 50 mg/kg, po for 3 weeks. It counts as functional.
Series [42] concerns Mycobacterium tuberculosis. Description: Antibacterial activity against Mycobacterium tuberculosis infected in macrophage assessed as inhibition of bacterial growth in presence of Ethionamide. The class given is functional, organism-based.
The test system of series [43] is Mycobacterium tuberculosis. It counts as functional. The conditions noted are these: H37Rv. This is another data set of the same source.
In series [44] the test system is Mycobacterium tuberculosis. It counts as functional, H37Rv. The conditions noted are these: dose 400 mg/kg; route sc; time 3 weeks.
The test system of series [45] is Mycobacterium tuberculosis. It counts as functional. The note with it: H37Rv, 336 h, time 14 day. This is another data set of the same source.

A word on the solubility: it is the dissolved amount per volume that the medium holds. The term half-life denotes the time needed for the level to fall by half in the phase considered. As usually defined, the EC50 is the midpoint of the concentration-response curve. What is called MIC90 is an inhibitory concentration at the 90% level, which refers to growth in some studies and to a panel of isolates in others. In general, bioavailability refers to the share of a dose that reaches the circulation, judged against a reference dose that is usually intravenous. Broadly, the IC50 is the point on the concentration scale where inhibition reaches its midpoint. Broadly, the CC50 is the concentration that lowers cell viability or growth by half.

≈ marks a conversion by molar mass, not a printed value.

`O=C(NCCC(F)(F)F)c1ccc(-c2noc(C3CC3)n2)cc1` displayed a solubility at 24 h in series [1] of 30 µM (≈ 9.76 µg/mL). This compound registered an Activity in [2] above 2 log10CFU. For the same compound, the half-life in series [3] was 19 min. Besides, in [4], the concentration for a half-maximal effect (EC50) was determined as 0.072 µM.

Take `CO[C@H]1CCC[C@H]2C1=C(C(=O)[O-])N1C(=O)[C@H]([C@@H](C)O)[C@@H]21.[Na+]` [SANFETRINEM SODIUM]: the MIC in series [5] and in series [9] was 5 µM in each case. Also, the Activity in series [6] and in series [8] was 1.7 log10CFU throughout. For the same compound, the MIC90 in [7] came out at 5.6 µM.

Consider `C[C@@H](O)[C@H]1C(=O)N2C(C(=O)[O-])=C(SC3Cn4cnc[n+]4C3)[C@H](C)[C@H]12` (stereo partly specified) [BIAPENEM], for which the half-life in series [10] was 17.4 min. Besides, the Activity in series [11] is 8.6 log10CFU; in [12], 5.3 log10CFU. Also, the MIC90 is 7.1 µM (≈ 2.49 µg/mL) in series [13] and 1.7 µM (≈ 0.596 µg/mL) in [14].

Consider `Cc1csc([C@](C)(O)c2nnc(Nc3ccn(Cc4csc(C)n4)n3)s2)n1`, for which the Activity in [15] and in series [19] was 3 log10CFU in each case. In series [16], this compound displayed a bioavailability of 92%. Further, the IC50 is above 50 µM in [17] and 0.007 µM in series [21]. This compound also showed a CC50 in the series with HepG2 [18] above 50 µM. This compound also came in with a half-life in [10] of 56 min. In [20], the MIC90 amounted to 0.2 µM (≈ 0.0839 µg/mL). Also, the solubility at 1 h in [22] came out at 413 µM (≈ 173 µg/mL).

With `CCS(=O)(=O)N1N=Cc2ccc(Oc3ccc(C(F)(F)F)cc3/C=N/O)cc2B1O`, the bioavailability in [23] is 53%. The figures for the Activity in [24], in [27] and in series [28] were 1.7 log10CFU, 1.5 log10CFU and 3.7 log10CFU, respectively. Besides, in [25], the half-life is 210 min. Besides, the CC50 in the series with HepG2 [26] was above 100 µM. The same compound gave an MIC90 in series [29] of 0.09 µM (≈ 0.0397 µg/mL).

For `CCCCS(=O)(=O)Nc1ccc2[nH]ncc2c1`, the MIC in series [30] is 1.2 µM (≈ 0.304 µg/mL). The same compound returned an Activity in [31] of 2 log10CFU.

Consider `CCCCS(=O)(=O)Nc1ccc2cnn(C)c2c1`, for which the values for the CC50 (in [32]; with HepG2 [18]) were 170 µM and above 100 µM, respectively. The Activity in [33] was 3.5 log10CFU; in series [38] it was 2.4 log10CFU. The same compound returned an IC50 in series [34] above 50 µM. Moreover, the solubility kinetic at 4.5 h in series [35] amounted to 175 µM (≈ 46.8 µg/mL). Besides, the half-life in [36] was found to be 10 min. Also, the MIC in [9] was 0.8 µM (≈ 0.214 µg/mL). Also, the solubility kinetic in series [37] is above 550 µM.

On to `O=S1(=O)C[C@H](O)[C@@H](N2CCN(c3ccc(F)cc3Cl)CC2)C1`, for which, in the series on HepG2 [18], the CC50 is above 100 µM. In series [39], the solubility worked out at 434 µM (≈ 151 µg/mL). In series [40], the Activity was determined as 1.4 log10CFU. Moreover, the MIC in [9] was 2.3 µM (≈ 0.802 µg/mL).

As for `O=C(CCC(F)(F)F)N1CCC2(CC1)CC(c1ccccc1)=NO2`, the half-life in series [10] turned out to be 19 min. In series [41], the Activity amounted to 1 log10CFU. For the same compound, the EC50 in series [42] turned out to be 0.02 µM. Moreover, the MIC in [43] is 0.3 µM (≈ 0.102 µg/mL).

On to `CSC1=C(C(=O)[O-])N2C(=O)[C@H]([C@@H](C)O)[C@H]2[C@H]1C.[Na+]`, for which, in [44], the Activity is listed as below 2 log10CFU. This compound also displayed an MIC90 in series [45] of 0.9 µM.
